Some test systems named below: A549; ACHN; CAKI-1; HCT-116; HCT-15; HOP-92; IGROV-1; KM12; NCI-H522; RXF 393; SF-295; SF-539; SK-MEL-28; SN12C; SNB-19; SW-620; TK-10.
Experiment in all cases: inhibition of tumour cell growth, NCI panel, 48 h

Each structure is given as a SMILES string.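 Test compounds were applied to cells in 96-well plates for 48 hours at 5 doses. GI50 marks 50% less growth.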 Activity calls are given as the source filed them. No stated cut-off is given here; in the data, active = GI50 up to about 1.1 µM and inactive = higher.

Consider `C=C(CN(C)C)C(=O)c1ccccc1C`, for which the GI50 in the assay on A549 was > 100 µM (inactive); with ACHN, 24.7 µM (inactive); in the assay on CAKI-1, 27.5 µM (inactive); in the assay with HCT-116 it was 24.8 µM (inactive); in the assay on HCT-15, 24.9 µM; in the assay on HOP-92, 17.7 µM (inactive). For the same compound, the GI50 with IGROV-1 is > 100 µM (inactive); in the assay with KM12, > 100 µM (inactive); in the assay with NCI-H522, 5.69 µM (inactive); in the assay with RXF 393, 12.9 µM (inactive); in the assay with SF-295, > 100 µM (inactive); in the assay on SF-539 it was > 40.4 µM (inactive). The GI50 was 9.89 µM (inactive) with SK-MEL-28; 46.9 µM (inactive) in the assay on SN12C; > 100 µM (inactive) in the assay on SNB-19; 16.1 µM (inactive) in the assay on SW-620; > 74.6 µM (inactive) with TK-10.

Take `O=C(c1ccc(Cl)cc1)N(C(=S)N1CCN(c2ccccc2)CC1)C1CCCCC1`: the GI50 with A549 was > 100 µM (inactive); with ACHN, > 100 µM (inactive); in the assay on CAKI-1, > 100 µM (inactive); in the assay on HCT-116, 45.7 µM (inactive); with HCT-15, greater than 100 µM; in the assay with HOP-92, > 100 µM (inactive). In addition, the GI50 with IGROV-1, with KM12, with NCI-H522, with RXF 393, in the assay with SF-295 and in the assay with SF-539 was > 100 µM (inactive) in each case. Moreover, the GI50 in the assay with SK-MEL-28, in the assay with SN12C, with SNB-19, in the assay with SW-620 and in the assay on TK-10 was > 100 µM (inactive) in each case.

On to `O=C(N/C=C1\C(=O)Oc2ccccc2C1=O)Nc1ccccc1`, for which the GI50 was 53.1 µM (inactive) with A549; 27.7 µM (inactive) with ACHN; 15.1 µM (inactive) in the assay with CAKI-1; 37.7 µM (inactive) with HCT-116; 40.3 µM in the assay with HCT-15; 25.8 µM (inactive) in the assay with HOP-92. For the same compound, the GI50 in the assay on IGROV-1 was 51.2 µM (inactive); in the assay with KM12, 64 µM (inactive); in the assay on NCI-H522 it was 58.5 µM (inactive); in the assay on RXF 393, 16.7 µM (inactive); in the assay on SF-295, > 100 µM (inactive); in the assay on SF-539, 43.8 µM (inactive). Further, the GI50 in the assay on SK-MEL-28 was 87.1 µM (inactive); with SN12C, 32.8 µM (inactive); with SNB-19, 29 µM (inactive); in the assay with SW-620, 61.2 µM (inactive); in the assay with TK-10, 34 µM (inactive).

As to `O=[N+]([O-])c1ccc(Cl)c(C2CC(c3cccc4ccccc34)=Nc3ccccc3S2)c1` (stereo not given), the GI50 is 28.7 µM (inactive) in the assay with A549; 34.1 µM (inactive) with ACHN; 21.9 µM (inactive) with CAKI-1; 6.68 µM (inactive) in the assay with HCT-116; 15.2 µM with HCT-15; 2.64 µM (inactive) in the assay on HOP-92. For the same compound, the GI50 is 48.5 µM (inactive) in the assay with IGROV-1; 20.2 µM (inactive) in the assay with KM12; 14.3 µM (inactive) with NCI-H522; 8.91 µM (inactive) with RXF 393; 23.9 µM (inactive) in the assay on SF-295; 20.6 µM (inactive) in the assay with SF-539. Moreover, the GI50 in the assay on SK-MEL-28 was 27.3 µM (inactive); in the assay on SN12C, 21 µM (inactive); in the assay with SNB-19 it was 44.4 µM (inactive); in the assay on SW-620, 18.8 µM (inactive); with TK-10 it was 41 µM (inactive).

With `COc1ccccc1/C=C1\CCC(CCN(C)C)(C2=CCCC2)C1=O` (stereo not given), the GI50 was 23.9 µM (inactive) in the assay with A549; 16.7 µM (inactive) in the assay on ACHN; 20.9 µM (inactive) in the assay with CAKI-1; 12.7 µM (inactive) with HCT-116; 19.2 µM with HCT-15; 16.9 µM (inactive) in the assay on HOP-92. Moreover, the GI50 is 14.1 µM (inactive) with IGROV-1; 18.2 µM (inactive) in the assay on KM12; 14.1 µM (inactive) in the assay with NCI-H522; 12.8 µM (inactive) with RXF 393; 17.3 µM (inactive) in the assay with SF-295; 15.1 µM (inactive) in the assay with SF-539. For the same compound, the GI50 is 17.7 µM (inactive) with SK-MEL-28; 22.1 µM (inactive) with SN12C; 16.1 µM (inactive) in the assay on SNB-19; 17.5 µM (inactive) in the assay on SW-620; 18.5 µM (inactive) in the assay on TK-10.

The record behind these values is ChEMBL document CHEMBL1201862, “PubChem BioAssay data set” (2004).
